Measured values taken from US20230286923A1 (INIPHARM, INC., priority 2020, published 2023).

Experiments:
HSD17B13 enzyme [1] = molecular target: T1, HSD17B13 enzyme (Homo sapiens (Human), UniProt Q7Z5P4); test: NADH detection assay (fluorescence based LTB3 assay) for HSD17B13 activity; assay type: biochemical; details: substrate 25 µM LTB3, 3 mM NAD+, 125 nM enzyme
Description: The fluorescence based Leukotriene B3 (LTB3) assay monitors the fluorescence of NADH, which is generated from NAD+ during the dehydrogenation of the substrate LTB3. The reactions were performed in a 384-well plates (Greiner; #655076) in a 20 µl reaction volume containing the following reagents (final concentrations): 25 µM LTB3 (Cayman; #20109); 3 mM NAD^+ (Sigma; #N0623); 125 nM HSD17B13 enzyme (in-house; E. coli expressed His-tagged, purified, soluble protein); 1 M potassium phosphate buffer, pH 7.4; and 1% DMSO. Reactions were initiated by co-addition of NAD+ and enzyme, and monitored for 1 hour at 26.5° C. Generation of NADH was measured as the fluorescence signal (Excitation at 340 nm and Emission at 445 nm) at 1 hour minus the baseline fluorescence at t=0. Fluorescence signals in the absence of LTB3 (negative control values), were subtracted from all values so that the results reflected substrate-dependent production of NADH. NADH standards were included to allow the conversion of relative fluorescence units into rates of enzyme activity. Enzyme activity in the presence of test compounds was expressed as a percentage of the uninhibited enzyme activity, and plotted versus inhibitor concentration. Non-linear regression was performed using a four-parameter logistic model and Microsoft Excel Solver software Ten concentrations of inhibitor were tested in duplicate (in the range of 30 µM - 2.5 nM), and two independent concentration response assays were performed.

HSD17B13 enzyme [2] = molecular target: T1, HSD17B13 enzyme; test: Estrone detection assay (LC/MS, conversion of estradiol to estrone) for HSD17B13 activity; assay type: biochemical; details: substrate 4 µM estradiol, 6 mM NAD+, 30 nM enzyme

T1 sequence (Q7Z5P4 20-300): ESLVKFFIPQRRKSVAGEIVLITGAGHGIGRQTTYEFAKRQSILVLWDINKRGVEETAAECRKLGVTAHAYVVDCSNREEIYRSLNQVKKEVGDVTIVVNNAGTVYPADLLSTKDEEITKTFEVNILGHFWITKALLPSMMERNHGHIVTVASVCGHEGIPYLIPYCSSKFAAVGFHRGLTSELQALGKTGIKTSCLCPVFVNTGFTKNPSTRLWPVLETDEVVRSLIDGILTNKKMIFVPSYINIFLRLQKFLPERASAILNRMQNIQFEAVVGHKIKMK

IC50 (HSD17B13 enzyme [1]) | IC50 (HSD17B13 enzyme [2]) | Compound
1000 to 5000 nM | 100 to 1000 nM | COc1ccccc1CCn1cnc2cccc(NC(=O)c3cc(Cl)c(O)c(Cl)c3)c2c1=O [Example 33, 3,5-dichloro-4-hydroxy-N-(3-(2-methoxyphenethyl)-4-oxo-3,4-dihydroquinazolin-5-yl)benzamide]
≤ 1000 nM | ≤ 100 nM | COc1ccccc1CCn1cnc2sc(C)c(NC(=O)c3ccc(O)c(Cl)c3)c2c1=O [Example 34, 3-chloro-4-hydroxy-N-(3-(2-methoxyphenethyl)-6-methyl-4-oxo-3,4-dihydrothieno[2,3-d]pyrimidin-5-yl)benzamide]
